pIC50: −log10 of the molar value.
Tests used:
BRM = BRM (Homo sapiens, UniProt P51531); assay: ATPase catalytic activity of BRM (ADP-Glo in vitro biochemical assay); conditions: for BRM Max % Inhibition: Table 6
BRG-1 = BRG-1 (Homo sapiens, UniProt P51532); assay: ATPase catalytic activity of BRG-1 (ADP-Glo in vitro biochemical assay); conditions: for BRG1 Max % Inhibition: Table 6
Sequence of BRG-1 (P51532 whole entry): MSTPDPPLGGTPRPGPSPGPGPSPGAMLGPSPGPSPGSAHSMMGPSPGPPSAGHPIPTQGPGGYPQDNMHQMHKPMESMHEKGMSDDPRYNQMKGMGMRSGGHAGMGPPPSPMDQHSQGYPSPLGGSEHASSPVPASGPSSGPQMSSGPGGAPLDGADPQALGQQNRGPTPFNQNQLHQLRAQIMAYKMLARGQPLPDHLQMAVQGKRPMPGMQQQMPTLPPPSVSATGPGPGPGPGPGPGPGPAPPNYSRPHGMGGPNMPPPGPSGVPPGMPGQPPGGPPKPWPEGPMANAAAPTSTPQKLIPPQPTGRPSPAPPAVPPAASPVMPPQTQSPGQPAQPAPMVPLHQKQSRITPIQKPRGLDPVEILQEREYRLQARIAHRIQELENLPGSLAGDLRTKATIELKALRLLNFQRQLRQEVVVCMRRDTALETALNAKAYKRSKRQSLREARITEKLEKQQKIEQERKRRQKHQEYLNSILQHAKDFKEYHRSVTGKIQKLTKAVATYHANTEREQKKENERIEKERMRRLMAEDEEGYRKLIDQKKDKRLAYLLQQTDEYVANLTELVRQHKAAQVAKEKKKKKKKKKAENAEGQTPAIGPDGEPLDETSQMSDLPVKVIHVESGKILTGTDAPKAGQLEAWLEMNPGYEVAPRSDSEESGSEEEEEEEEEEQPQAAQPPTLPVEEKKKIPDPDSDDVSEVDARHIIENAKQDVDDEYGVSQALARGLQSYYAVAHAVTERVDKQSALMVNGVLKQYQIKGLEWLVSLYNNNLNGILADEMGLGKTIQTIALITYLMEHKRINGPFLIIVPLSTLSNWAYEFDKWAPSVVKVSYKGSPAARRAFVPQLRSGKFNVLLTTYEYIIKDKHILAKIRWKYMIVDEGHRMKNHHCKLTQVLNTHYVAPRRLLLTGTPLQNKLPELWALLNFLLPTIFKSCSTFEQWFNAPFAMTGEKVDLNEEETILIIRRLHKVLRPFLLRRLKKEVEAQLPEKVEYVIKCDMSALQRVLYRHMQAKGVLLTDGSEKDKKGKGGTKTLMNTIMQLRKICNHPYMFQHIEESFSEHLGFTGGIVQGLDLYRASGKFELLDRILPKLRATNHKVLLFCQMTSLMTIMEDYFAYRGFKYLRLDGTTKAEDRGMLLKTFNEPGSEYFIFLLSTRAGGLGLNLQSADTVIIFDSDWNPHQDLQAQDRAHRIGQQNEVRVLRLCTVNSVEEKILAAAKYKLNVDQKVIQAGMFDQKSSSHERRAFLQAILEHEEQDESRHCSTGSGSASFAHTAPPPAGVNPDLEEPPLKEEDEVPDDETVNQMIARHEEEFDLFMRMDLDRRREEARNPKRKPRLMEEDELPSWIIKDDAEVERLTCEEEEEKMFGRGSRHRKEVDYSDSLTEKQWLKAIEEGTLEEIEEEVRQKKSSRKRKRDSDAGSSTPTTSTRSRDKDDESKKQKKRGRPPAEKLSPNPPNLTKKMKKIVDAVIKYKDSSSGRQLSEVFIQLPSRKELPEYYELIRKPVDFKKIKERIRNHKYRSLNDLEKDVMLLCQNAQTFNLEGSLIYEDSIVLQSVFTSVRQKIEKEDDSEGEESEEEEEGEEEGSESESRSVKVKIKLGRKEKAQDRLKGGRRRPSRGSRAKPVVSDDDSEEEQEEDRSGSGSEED

Sequence of BRM (P51531 whole entry): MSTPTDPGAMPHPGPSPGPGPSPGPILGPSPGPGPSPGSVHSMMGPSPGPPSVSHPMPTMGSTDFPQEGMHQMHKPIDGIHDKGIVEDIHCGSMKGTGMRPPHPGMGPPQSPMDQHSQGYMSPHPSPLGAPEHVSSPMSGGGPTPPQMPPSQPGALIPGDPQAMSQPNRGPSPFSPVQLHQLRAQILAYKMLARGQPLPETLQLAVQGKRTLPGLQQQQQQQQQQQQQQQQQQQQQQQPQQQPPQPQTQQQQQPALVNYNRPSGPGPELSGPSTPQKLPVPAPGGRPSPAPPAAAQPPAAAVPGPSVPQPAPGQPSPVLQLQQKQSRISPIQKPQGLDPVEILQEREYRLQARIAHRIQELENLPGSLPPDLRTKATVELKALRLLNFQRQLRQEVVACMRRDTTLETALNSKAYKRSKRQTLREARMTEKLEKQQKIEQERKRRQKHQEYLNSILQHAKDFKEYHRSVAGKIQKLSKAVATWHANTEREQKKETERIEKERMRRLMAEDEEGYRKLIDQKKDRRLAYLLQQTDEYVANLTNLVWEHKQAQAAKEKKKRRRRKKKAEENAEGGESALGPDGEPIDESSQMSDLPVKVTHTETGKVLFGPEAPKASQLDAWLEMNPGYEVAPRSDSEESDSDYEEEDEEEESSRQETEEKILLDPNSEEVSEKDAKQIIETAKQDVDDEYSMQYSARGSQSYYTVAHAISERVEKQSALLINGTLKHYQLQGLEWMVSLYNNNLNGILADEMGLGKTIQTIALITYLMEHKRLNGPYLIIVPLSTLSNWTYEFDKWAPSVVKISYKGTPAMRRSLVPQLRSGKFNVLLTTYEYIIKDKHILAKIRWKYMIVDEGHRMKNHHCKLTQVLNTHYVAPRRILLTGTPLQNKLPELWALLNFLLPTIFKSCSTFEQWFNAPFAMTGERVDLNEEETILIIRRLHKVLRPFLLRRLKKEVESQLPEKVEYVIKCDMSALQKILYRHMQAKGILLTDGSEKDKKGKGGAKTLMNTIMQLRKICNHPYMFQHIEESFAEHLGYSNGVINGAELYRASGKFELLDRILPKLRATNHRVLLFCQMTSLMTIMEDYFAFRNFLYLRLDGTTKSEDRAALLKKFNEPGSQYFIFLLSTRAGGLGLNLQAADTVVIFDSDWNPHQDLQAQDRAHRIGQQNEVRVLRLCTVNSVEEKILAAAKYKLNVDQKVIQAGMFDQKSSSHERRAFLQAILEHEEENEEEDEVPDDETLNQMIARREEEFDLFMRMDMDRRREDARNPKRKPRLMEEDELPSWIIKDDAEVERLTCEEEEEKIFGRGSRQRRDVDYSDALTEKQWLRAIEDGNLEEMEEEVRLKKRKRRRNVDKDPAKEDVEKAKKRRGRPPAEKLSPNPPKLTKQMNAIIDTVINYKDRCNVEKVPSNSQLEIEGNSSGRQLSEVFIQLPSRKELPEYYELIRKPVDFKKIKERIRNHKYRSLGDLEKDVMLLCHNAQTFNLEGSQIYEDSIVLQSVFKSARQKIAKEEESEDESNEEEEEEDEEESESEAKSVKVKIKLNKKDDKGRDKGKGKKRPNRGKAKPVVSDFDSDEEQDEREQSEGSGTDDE

| pIC50 (BRM) | BRM Max % Inhibition (BRM) [%] | pIC50 (BRG-1) | BRG1 Max % Inhibition (BRG-1) [%] | Structure (SMILES) |
| --- | --- | --- | --- | --- |
| 6.00 to 7.00 | >95 | 6.00 to 7.00 | >95 | CSCC[C@H](NC(=O)c1ccc(N)cc1)C(=O)Nc1nc(-c2cc(C#N)cc(-c3ccccc3)c2)cs1 [Compound 116, (S)-4-amino-N-(1-((4-(5-cyano-[1,1′-biphenyl]-3-yl)thiazol-2-yl)amino)-4-(methylthio)-1-oxobutan-2-yl)benzamide] |
| 6.00 to 7.00 | >90 | 5.00 to 6.00 | >90 | CSCC[C@H](NC(=O)c1ccc(N)cc1)C(=O)Nc1nc(-c2cccc(-c3ccc(CN)cc3)c2)cs1 [Compound 118, (S)-4-amino-N-(1-((4-(4′-(aminomethyl)-[1,1′-biphenyl]-3-yl)thiazol-2-yl)amino)-4-(methylthio)-1-oxobutan-2-yl)benzamide] |
| 6.00 to 7.00 | >95 | 5.00 to 6.00 | >95 | CSCC[C@H](NC(=O)c1ccc(N)cc1)C(=O)Nc1nc(-c2ccc(C#N)c(-c3ccccc3)c2)cs1 [Compound 119, (S)-4-amino-N-(1-((4-(6-cyano-[1,1′-biphenyl]-3-yl)thiazol-2-yl)amino)-4-(methylthio)-1-oxobutan-2-yl)benzamide] |
| 6.00 to 7.00 | >90 | 6.00 to 7.00 | >90 | CSCC[C@H](NC(=O)c1ccc(N)cc1)C(=O)Nc1nc(-c2cccc(CNC(C)=O)c2)cs1 [Compound 120, (S)-N-(1-((4-(3-(acetamidomethyl)phenyl)thiazol-2-yl)amino)-4-(methylthio)-1-oxobutan-2-yl)-4-aminobenzamide] |
| 6.00 to 7.00 | >95 | 6.00 to 7.00 | >95 | CSCC[C@H](NC(=O)c1ccc(N)cc1)C(=O)Nc1nc(-c2ccc(CNC(C)=O)cc2)cs1 [Compound 121, (S)-N-(1-((4-(4-(acetamidomethyl)phenyl)thiazol-2-yl)amino)-4-(methylthio)-1-oxobutan-2-yl)-4-aminobenzamide] |
| 6.00 to 7.00 | >95 | 5.00 to 6.00 | >90 | COC(=O)N1CCC[C@H](c2csc(NC(=O)CNC(=O)c3ccc(N)cc3)n2)C1 [Compound 122, (S)-methyl 3-(2-(2-(4-aminobenzamido)acetamido)thiazol-4-yl)piperidine-1-carboxylate] |
| 6.00 to 7.00 | >80 | 6.00 to 7.00 | >80 | CC(=O)NCc1ccc(-c2cccc(-c3csc(NC(=O)CNC(=O)c4ccc(N)cc4)n3)c2)cc1 [Compound 123, N-(2-((4-(4′-(acetamidomethyl)-[1,1′-biphenyl]-3-yl)thiazol-2-yl)amino)-2-oxoethyl)-4-aminobenzamide] |
| 6.00 to 7.00 | >95 | 6.00 to 7.00 | >95 | CC(=O)NCc1cccc(-c2cccc(-c3csc(NC(=O)CNC(=O)c4ccc(N)cc4)n3)c2)c1 [Compound 124, N-(2-((4-(3′-(acetamidomethyl)-[1,1′-biphenyl]-3-yl)thiazol-2-yl)amino)-2-oxoethyl)-4-aminobenzamide] |
| > 7.00 | >95 | > 7.00 | >95 | C[C@H](NC(=O)c1ccc(N)cc1)C(=O)Nc1nc(-c2cccc(-c3ccncc3)c2)cs1 [Compound 125, (S)-4-amino-N-(1-oxo-1-((4-(3-(pyridin-4-yl)phenyl)thiazol-2-yl)amino)propan-2-yl)benzamide] |
| > 7.00 | >80 | > 7.00 | >80 | CNc1ccc(C(=O)NCC(=O)Nc2nc(-c3cccc(-c4ccncc4)c3)cs2)cc1 [Compound 126, 4-(methylamino)-N-(2-oxo-2-((4-(3-(pyridin-4-yl)phenyl)thiazol-2-yl)amino)ethyl)benzamide] |
